Measurements reported in the supplement of paper PMC11061612.

What was measured:
[1] = tested on: NCI-H1666 (Lung Adenocarcinoma); test: combination Emax (second highest fraction inhibited in the dose matrix, 72 h); higher = more inhibition; extreme values may be limits of the assay
Summary of the method: (§1)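 Cell lines in DMEM/F12 or RPMI with 10% FBS were plated in 1536-well plates, held 24 hours at 37°C, 5% CO2, then given two-drug dose matrices for 72 hours (DMSO typically 0.2%). Viability was read by CellTiter-Glo 2.0 luminescence and scaled as inhibition from 0 (vehicle wells) to 1 (blank wells). Combination Emax is the second-highest inhibition in the matrix; Bliss excess is observed combination effect minus expected EA + EB − EA·EB, EA and EB being single-agent effects.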

[2] = tested on: NCI-H64 (Small Cell Lung Carcinoma); test: as above
Summary of the method: as §1

IGR-37 (Melanoma) [3] = test: as above
Summary of the method: as §1

[4] = tested on: PANC-10-05 (Pancreatic Carcinoma); test: as above
Summary of the method: as §1

[5] = tested on: KARPAS-422 (B-Cell Non-Hodgkin's Lymphoma); test: as above
Summary of the method: as §1

[6] = tested on: BICR22 (Oral Cavity Carcinoma); test: as above
Summary of the method: as §1

[7] = tested on: ECC10 (Gastric Carcinoma); test: as above
Summary of the method: as §1

[8] = tested on: TT (Thyroid Gland Carcinoma); test: as above
Summary of the method: as §1

[9] = tested on: NCI-H2066 (Squamous Cell Lung Carcinoma); test: as above
Summary of the method: as §1

[10] = tested on: ONS-76 (Other Solid Carcinomas); test: as above
Summary of the method: as §1

U-2-OS (Osteosarcoma) [11] = test: as above
Summary of the method: as §1

[12] = tested on: COLO-320-HSR (Colorectal Carcinoma); test: as above
Summary of the method: as §1

[13] = tested on: NCI-H1581 (Non-Small Cell Lung Carcinoma); test: as above
Summary of the method: as §1

[14] = tested on: CAPAN-2 (Pancreatic Carcinoma); test: as above
Summary of the method: as §1

[15] = tested on: VCaP (Prostate Carcinoma); test: as above
Summary of the method: as §1

NY (Osteosarcoma) [16] = test: as above
Summary of the method: as §1

[17] = tested on: CCK-81 (Colorectal Carcinoma); test: as above
Summary of the method: as §1

FU97 (Gastric Carcinoma) [18] = test: as above
Summary of the method: as §1

[19] = tested on: NCI-H1666 (Lung Adenocarcinoma); test: Bliss excess, mean over the matrix (fraction); higher = more synergy
Summary of the method: as §1

[20] = tested on: NCI-H64 (Small Cell Lung Carcinoma); test: as above
Summary of the method: as §1

IGR-37 (Melanoma) [21] = test: as above
Summary of the method: as §1

[22] = tested on: PANC-10-05 (Pancreatic Carcinoma); test: as above
Summary of the method: as §1

[23] = tested on: KARPAS-422 (B-Cell Non-Hodgkin's Lymphoma); test: as above
Summary of the method: as §1

[24] = tested on: BICR22 (Oral Cavity Carcinoma); test: as above
Summary of the method: as §1

[25] = tested on: ECC10 (Gastric Carcinoma); test: as above
Summary of the method: as §1

[26] = tested on: TT (Thyroid Gland Carcinoma); test: as above
Summary of the method: as §1

[27] = tested on: NCI-H2066 (Squamous Cell Lung Carcinoma); test: as above
Summary of the method: as §1

[28] = tested on: ONS-76 (Other Solid Carcinomas); test: as above
Summary of the method: as §1

U-2-OS (Osteosarcoma) [29] = test: as above
Summary of the method: as §1

[30] = tested on: COLO-320-HSR (Colorectal Carcinoma); test: as above
Summary of the method: as §1

[31] = tested on: NCI-H1581 (Non-Small Cell Lung Carcinoma); test: as above
Summary of the method: as §1

[32] = tested on: CAPAN-2 (Pancreatic Carcinoma); test: as above
Summary of the method: as §1

[33] = tested on: VCaP (Prostate Carcinoma); test: as above
Summary of the method: as §1

NY (Osteosarcoma) [34] = test: as above
Summary of the method: as §1

[35] = tested on: CCK-81 (Colorectal Carcinoma); test: as above
Summary of the method: as §1

FU97 (Gastric Carcinoma) [36] = test: as above
Summary of the method: as §1
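Throughout, for Bliss excess, mean over the matrix: after 72 h of two-drug dosing.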

SMILES | combination Emax [1] | combination Emax [2] | combination Emax (IGR-37 (Melanoma) [3]) | combination Emax [4] | combination Emax [5] | combination Emax [6] | combination Emax [7] | combination Emax [8] | combination Emax [9] | combination Emax [10] | combination Emax (U-2-OS (Osteosarcoma) [11]) | combination Emax [12] | combination Emax [13] | combination Emax [14] | combination Emax [15] | combination Emax (NY (Osteosarcoma) [16]) | combination Emax [17] | combination Emax (FU97 (Gastric Carcinoma) [18]) | Bliss excess [19] | Bliss excess [20] | Bliss excess (IGR-37 (Melanoma) [21]) | Bliss excess [22] | Bliss excess [23] | Bliss excess [24] | Bliss excess [25] | Bliss excess [26] | Bliss excess [27] | Bliss excess [28] | Bliss excess (U-2-OS (Osteosarcoma) [29]) | Bliss excess [30] | Bliss excess [31] | Bliss excess [32] | Bliss excess [33] | Bliss excess (NY (Osteosarcoma) [34]) | Bliss excess [35] | Bliss excess (FU97 (Gastric Carcinoma) [36])
O=C(c1cc(Cc2n[nH]c(=O)c3ccccc23)ccc1F)N1CCN(C(=O)C2CC2)CC1 [Olaparib] + CN(CC[C@H](CSC1=CC=CC=C1)NC2=C(C=C(C=C2)S(=O)(=O)NC(=O)C3=CC=C(C=C3)N4CCC(CC4)[C@H](C5=CC=CC=C5C6=CC=C(C=C6)Cl)O)S(=O)(=O)C(F)(F)F)CCO [AZD4320] (first compound max 10 µM, 7x7, partner max 1 µM) | 0.124 | 0.95 | 0.275 | 0.164 | 0.925 | 0.255 | 1 | 0.538 | 0.351 | 0.181 | 0.202 | 0.19 | 0.3 | 0.462 | 0.128 | 0.195 | 0.124 | 0.212 | -0.0702 | -0.0325 | 0.0028 | -0.0548 | -0.0348 | 0.0041 | 0.0135 | 0.0271 | -0.097 | -0.0216 | -0.0213 | 0.016 | 0.0118 | -0.0461 | -0.0444 | 0.0263 | -0.0283 | -0.0426
O=C(c1cc(Cc2n[nH]c(=O)c3ccccc23)ccc1F)N1CCN(C(=O)C2CC2)CC1 [Olaparib] + COc1nnc2ccc(N3CCC(c4ccc(OCCN5CCN(C)C(=O)[C@H]5C)cc4)CC3)nn12 [AZD5153] (first compound max 10 µM, 7x7, partner max 1 µM) | 0.409 | 0.239 | 0.58 | 0.401 | 0.66 | 0.0626 | 0.786 | 0.48 | 0.286 | 0.474 | 0.285 | 0.373 | 0.506 | 0.186 | 0.707 | 0.473 | 0.756 | 0.762 | -0.0544 | -0.0338 | -0.0984 | -0.0072 | -0.0132 | -0.0477 | -0.0196 | -0.0615 | -0.0865 | -0.0463 | -0.0312 | -0.0311 | 0.0078 | -0.0267 | -0.082 | -0.0877 | -0.0643 | -0.0372
O=C(c1cc(Cc2n[nH]c(=O)c3ccccc23)ccc1F)N1CCN(C(=O)C2CC2)CC1 [Olaparib] + Cc1c2c(nn1C)CSCc1cc(n(C)n1)CSc1cc(c3ccccc3c1)OCCCc1c(C(=O)O)n(C)c3c-2c(Cl)ccc13 [AZD5991] (first compound max 10 µM, 7x7, partner max 1 µM) | 0.111 | 0.148 | 0.151 | 0.159 | 0.967 | 0.108 | 0.738 | 0.168 | 0.2 | 0.17 | 0.0686 | 0.836 | 0.972 | 0.044 | 0.958 | 0.426 | 0.785 | 0.207 | -0.0669 | 0.0017 | -0.0419 | -0.0739 | -0.0071 | -0.0317 | 0.0111 | -0.0273 | -0.0539 | -0.038 | -0.0394 | -0.0304 | 0.0183 | -0.0426 | -0.0247 | -0.0239 | -0.0311 | -0.0169
N#Cc1cnc(Nc2cc(NC[C@H]3CNCCO3)c(C(F)(F)F)cn2)cn1 [SRA737] + C=CCn1c(=O)c2cnc(Nc3ccc(N4CCN(C)CC4)cc3)nc2n1-c1cccc(C(C)(C)O)n1 [AZD1775] (first compound max 10 µM, partner max 1 µM) | 0.253 | 0.865 | 0.789 | 0.42 | 0.817 | 0.836 | 0.823 | 0.352 | 0.426 | 0.824 | 0.877 | 0.706 | 0.67 | 0.306 | 0.66 | 0.673 | 0.916 | 0.366 | -0.0345 | 0.0534 | 0.0182 | -0.101 | 0.0952 | 0.177 | 0.0773 | 0.0428 | 0.0147 | 0.11 | 0.0962 | 0.116 | 0.0425 | -0.0431 | 0.0327 | 0.0355 | 0.0173 | 0.0097
